Patent US4101556A, “Total synthesis of 2,5-dideoxystreptamines” (Bristol-Myers Company, priority 1977, dated 1978)
Converted amounts (≈) assume the structure as drawn. Values belong to the molecule of their own block, whether it stands above or below them.

Tests used:
S. pneum. 9585 = experiment: Minimum Inhibitory Concentration against S. pneum. 9585; assay type: cell-based; conditions: Mueller-Hinton Broth, 10^-4 organism dilution, read-out: M.I.C. (Minimum Inhibitory Concentration)
From the text: (§1) Minimum Inhibitory Concentration Of
(§2) 5-deoxykanamycin A Against Various
(§3) Microorganisms (mcg./ml.)
(§4) ^a = 45% Antibiotic Assay Broth, 50% Mueller-Hinton Broth and 5%
(§5) serum. All others are Mueller-Hinton Broth.
(§6) ^b = 10^-3 Organism dilution. All others are 10^-4 organism

S. pyogenes 9604 = experiment: Minimum Inhibitory Concentration against S. pyogenes 9604; assay type: cell-based; conditions: Streptococcus pyogenes, 45% Antibiotic Assay Broth, 50% Mueller-Hinton Broth and 5% serum, 10^-3 organism dilution, read-out: M.I.C. (Minimum Inhibitory Concentration)
From the text: as §1, §2, §3, §4, §5, §6

S. aureus 9537 = experiment: Minimum Inhibitory Concentration against S. aureus 9537; assay type: cell-based; conditions: Staphylococcus aureus, Mueller-Hinton Broth, 10^-4 organism dilution, read-out: M.I.C. (Minimum Inhibitory Concentration)
From the text: as §1, §2, §3, §4, §5, §6

S. aureus 9606 = experiment: Minimum Inhibitory Concentration against S. aureus 9606; assay type: cell-based; conditions: Staphylococcus aureus, Mueller-Hinton Broth, 10^-4 organism dilution, read-out: M.I.C. (Minimum Inhibitory Concentration)
From the text: as §1, §2, §3, §4, §5, §6

S. aureus 20240 = experiment: Minimum Inhibitory Concentration against S. aureus 20240; assay type: cell-based; conditions: Staphylococcus aureus, Mueller-Hinton Broth, 10^-4 organism dilution, read-out: M.I.C. (Minimum Inhibitory Concentration)
From the text: as §1, §2, §3, §4, §5, §6

E. coli 9632 = experiment: Minimum Inhibitory Concentration against E. coli 9632; assay type: cell-based; conditions: Escherichia coli, Mueller-Hinton Broth, 10^-3 organism dilution, read-out: M.I.C. (Minimum Inhibitory Concentration)
From the text: as §1, §2, §3, §4, §5, §6

E. coli 21218 = experiment: Minimum Inhibitory Concentration against E. coli 21218; assay type: cell-based; conditions: Escherichia coli, Mueller-Hinton Broth, 10^-3 organism dilution, read-out: M.I.C. (Minimum Inhibitory Concentration)
From the text: as §1, §2, §3, §4, §5, §6

E. coli 20895 = experiment: Minimum Inhibitory Concentration against E. coli 20895; assay type: cell-based; conditions: Escherichia coli, Mueller-Hinton Broth, 10^-3 organism dilution, read-out: M.I.C. (Minimum Inhibitory Concentration)
From the text: as §1, §2, §3, §4, §5, §6

E. coli 20732 = experiment: Minimum Inhibitory Concentration against E. coli 20732; assay type: cell-based; conditions: Escherichia coli, Mueller-Hinton Broth, 10^-3 organism dilution, read-out: M.I.C. (Minimum Inhibitory Concentration)
From the text: as §1, §2, §3, §4, §5, §6

E. coli 20665 = experiment: Minimum Inhibitory Concentration against E. coli 20665; assay type: cell-based; conditions: Escherichia coli, Mueller-Hinton Broth, 10^-3 organism dilution, read-out: M.I.C. (Minimum Inhibitory Concentration)
From the text: as §1, §2, §3, §4, §5, §6

E. coli 20683 = experiment: Minimum Inhibitory Concentration against E. coli 20683; assay type: cell-based; conditions: Escherichia coli, Mueller-Hinton Broth, 10^-3 organism dilution, read-out: M.I.C. (Minimum Inhibitory Concentration)
From the text: as §1, §2, §3, §4, §5, §6

E. cloacae 9656 = experiment: Minimum Inhibitory Concentration against E. cloacae 9656; assay type: cell-based; conditions: Enterobacter cloacae, Mueller-Hinton Broth, 10^-4 organism dilution, read-out: M.I.C. (Minimum Inhibitory Concentration)
From the text: as §1, §2, §3, §4, §5, §6

E. cloacae 20364 = experiment: Minimum Inhibitory Concentration against E. cloacae 20364; assay type: cell-based; conditions: Enterobacter cloacae, Mueller-Hinton Broth, 10^-3 organism dilution, read-out: M.I.C. (Minimum Inhibitory Concentration)
From the text: as §1, §2, §3, §4, §5, §6

E. cloacae 21006 = experiment: Minimum Inhibitory Concentration against E. cloacae 21006; assay type: cell-based; conditions: Enterobacter cloacae, Mueller-Hinton Broth, 10^-3 organism dilution, read-out: M.I.C. (Minimum Inhibitory Concentration)
From the text: as §1, §2, §3, §4, §5, §6

K. pneum. 9977 = experiment: Minimum Inhibitory Concentration against K. pneum. 9977; assay type: cell-based; conditions: Mueller-Hinton Broth, 10^-4 organism dilution, read-out: M.I.C. (Minimum Inhibitory Concentration)
From the text: as §1, §2, §3, §4, §5, §6

P. mirab. 9900 = experiment: Minimum Inhibitory Concentration against P. mirab. 9900; assay type: cell-based; conditions: Mueller-Hinton Broth, 10^-4 organism dilution, read-out: M.I.C. (Minimum Inhibitory Concentration)
From the text: as §1, §2, §3, §4, §5, §6

P. rettgeri 9637 = experiment: Minimum Inhibitory Concentration against P. rettgeri 9637; assay type: cell-based; conditions: Providencia rettgeri, Mueller-Hinton Broth, 10^-4 organism dilution, read-out: M.I.C. (Minimum Inhibitory Concentration)
From the text: as §1, §2, §3, §4, §5, §6

P. rettgeri 21207 = experiment: Minimum Inhibitory Concentration against P. rettgeri 21207; assay type: cell-based; conditions: Providencia rettgeri, Mueller-Hinton Broth, 10^-3 organism dilution, read-out: M.I.C. (Minimum Inhibitory Concentration)
From the text: as §1, §2, §3, §4, §5, §6

P. stuartii 21210 = experiment: Minimum Inhibitory Concentration against P. stuartii 21210; assay type: cell-based; conditions: Providencia stuartii, Mueller-Hinton Broth, 10^-4 organism dilution, read-out: M.I.C. (Minimum Inhibitory Concentration)
From the text: as §1, §2, §3, §4, §5, §6

P. stuartii 20894 = experiment: Minimum Inhibitory Concentration against P. stuartii 20894; assay type: cell-based; conditions: Providencia stuartii, Mueller-Hinton Broth, 10^-3 organism dilution, read-out: M.I.C. (Minimum Inhibitory Concentration)
From the text: as §1, §2, §3, §4, §5, §6

S. marc. 20019 = experiment: Minimum Inhibitory Concentration against S. marc. 20019; assay type: cell-based; conditions: Mueller-Hinton Broth, 10^-4 organism dilution, read-out: M.I.C. (Minimum Inhibitory Concentration)
From the text: as §1, §2, §3, §4, §5, §6

S. marc. 20460 = experiment: Minimum Inhibitory Concentration against S. marc. 20460; assay type: cell-based; conditions: Mueller-Hinton Broth, 10^-4 organism dilution, read-out: M.I.C. (Minimum Inhibitory Concentration)
From the text: as §1, §2, §3, §4, §5, §6

P. aerug. 9843A = experiment: Minimum Inhibitory Concentration against P. aerug. 9843A; assay type: cell-based; conditions: Mueller-Hinton Broth, 10^-4 organism dilution, read-out: M.I.C. (Minimum Inhibitory Concentration)
From the text: as §1, §2, §3, §4, §5, §6

P. aerug. 20653 = experiment: Minimum Inhibitory Concentration against P. aerug. 20653; assay type: cell-based; conditions: Mueller-Hinton Broth, 10^-4 organism dilution, read-out: M.I.C. (Minimum Inhibitory Concentration)
From the text: as §1, §2, §3, §4, §5, §6

P. aerug. 20741 = experiment: Minimum Inhibitory Concentration against P. aerug. 20741; assay type: cell-based; conditions: Mueller-Hinton Broth, 10^-4 organism dilution, read-out: M.I.C. (Minimum Inhibitory Concentration)
From the text: as §1, §2, §3, §4, §5, §6

P. aerug. 20717 = experiment: Minimum Inhibitory Concentration against P. aerug. 20717; assay type: cell-based; conditions: Mueller-Hinton Broth, 10^-4 organism dilution, read-out: M.I.C. (Minimum Inhibitory Concentration)
From the text: as §1, §2, §3, §4, §5, §6

P. aerug. 20601 = experiment: Minimum Inhibitory Concentration against P. aerug. 20601; assay type: cell-based; conditions: Mueller-Hinton Broth, 10^-4 organism dilution, read-out: M.I.C. (Minimum Inhibitory Concentration)
From the text: as §1, §2, §3, §4, §5, §6

P. aerug. 21509 = experiment: Minimum Inhibitory Concentration against P. aerug. 21509; assay type: cell-based; conditions: Mueller-Hinton Broth, 10^-4 organism dilution, read-out: M.I.C. (Minimum Inhibitory Concentration)
From the text: as §1, §2, §3, §4, §5, §6

[1] = background statement on positional isomers; cited from earlier work

- MIC (S. pneum. 9585): 125 µg/mL (≈ 267 µM)
- MIC (S. pyogenes 9604): 125 µg/mL (≈ 267 µM)
- MIC (S. aureus 9537): 2 µg/mL (≈ 4.27 µM)
- MIC (S. aureus 9606): 4 µg/mL (≈ 8.54 µM)
- MIC (S. aureus 20240): > 125 µg/mL
- MIC (E. coli 9632): 8 µg/mL (≈ 17.1 µM)
- MIC (E. coli 21218): > 125 µg/mL
- MIC (E. coli 20895): 8 µg/mL (≈ 17.1 µM)
- MIC (E. coli 20732): 125 µg/mL (≈ 267 µM)
- MIC (E. coli 20665): > 125 µg/mL
- MIC (E. coli 20683): > 125 µg/mL
- MIC (E. cloacae 9656): 8 µg/mL (≈ 17.1 µM)
- MIC (E. cloacae 20364): > 125 µg/mL
- MIC (E. cloacae 21006): > 125 µg/mL
- MIC (K. pneum. 9977): 1 µg/mL (≈ 2.13 µM)
- MIC (P. mirab. 9900): 32 µg/mL (≈ 68.3 µM)
- MIC (P. rettgeri 9637): 1 µg/mL (≈ 2.13 µM)
- MIC (P. rettgeri 21207): 16 µg/mL (≈ 34.2 µM)
- MIC (P. stuartii 21210): 4 µg/mL (≈ 8.54 µM)
- MIC (P. stuartii 20894): 32 µg/mL (≈ 68.3 µM)
- MIC (S. marc. 20019): 32 µg/mL (≈ 68.3 µM)
- MIC (S. marc. 20460): > 125 µg/mL
- MIC (P. aerug. 9843A): > 125 µg/mL
- MIC (P. aerug. 20653): > 125 µg/mL
- MIC (P. aerug. 20741): > 125 µg/mL
- MIC (P. aerug. 20717): > 125 µg/mL
- MIC (P. aerug. 20601): > 125 µg/mL
- MIC (P. aerug. 21509): > 125 µg/mL
Structure (SMILES): NC[C@H]1O[C@H](O[C@H]2C[C@@H](O[C@H]3O[C@H](CO)[C@@H](O)[C@H](N)[C@H]3O)[C@H](N)C[C@@H]2N)[C@H](O)[C@@H](O)[C@@H]1O [5-deoxykanamycin A, 5-Deoxykanamycin A]

Structure (SMILES): NC[C@H]1O[C@H](O[C@H]2[C@H](O)[C@@H](O)[C@H](N)C[C@@H]2N)[C@H](N)[C@@H](O)[C@@H]1O [neamine, 4-0-(2,6-dideoxy-2,6-diamino-α-D-glycopynanosyl) 2-deoxystreptamine]
- antibiotic activity [1]: biologically active
